Data set [1] in a line: in vivo. On the procedure: (§1) We first acquired multiwavelength images of microcuvette tubes containing 0.4 mM of ICG dye or RGD-JAAZ particles to evaluate the PA spectra of both contrast agents. […] For in vivo imaging experiments, multispectral PAI were acquired in two female nu/nu nude mice at various timepoints (0, 10, 90 min) following tail-vein administration of ICG dye and RGD-JAAZ particles (FIGS. 39A-39D). A pre-injection baseline PA signal at 895 nm was also acquired for reference (FIG. 39B). […] Molecular maps were generated from a linear spectral unmixing of the multiwavelength PA images using previously reported spectra for hemoglobin and the measured spectra of the RGD-JAAZ particles at their injection concentration.

Data set [2] in a line: Phantom PA spectra on TriTom imaging system. The following applies: 0.4 mM in microcuvette tubes. As for the experimental part:
as §1

A short description of data set [3]: Fluorescence measurements. Type of data set: physicochemical. The following applies: excitation 720 nm, emission 770-850 nm. As for the experimental part:
Fluorescence measurements: Fluorescence intensity of different concentrations of free ICG dye and J-aggregates was recorded using a Tecan Safire^2™ (Mannendorf, Switzerland) fluorescence microplate reader. Both free ICG dye and J-aggregate particles were excited at 720 nm with an emission at 770 nm. The fluorescence emission spectrum was recorded from 770 to 850 nm with a step size of 2 nm.

The nature of data set [4]: Photoacoustic signal relative to whole blood. To be noted: 20 μM, excited at 895 nm, PTFE tubing. Further details: species or system sheep. On the procedure: Photoacoustic Measurement: The 96-well plate was secured to the bottom of a plastic water reservoir. The reservoir was filled with deionized water, completely submerging the sample. For comparison of smaller volumes, 2-inch segments of 24-gauge PTFE tubing ([…]) was filled with various samples. The tubes were placed in a clear acrylic chamber submerging the samples in deionized water. A single element piezoelectric 35 MHz or 5 MHz focused transducer (V326, Olympus, Mass., USA) was fixed at 12 mm or 45 mm above each sample with their functional element submerged in deionized water. […] The photoacoustic signal recorded from the transducer is sent to a 20/40db amplifier (HVA-200M, Femto) from there the signal is recorded through a lock-in amplifier (Zurich Instruments, Zurich, Switzerland) triggered on each laser pulse using a photodiode placed near the laser source. […] The absolute amplitude of each waveform was calculated, averaged, and normalized to the signal recorded from India ink or whole sheep's blood containing anticoagulant.
To explore the possibility of using JAAZ in vivo, the photoacoustic signal was compared to whole blood. […] PA signals were recorded from each sample and the signal amplitude was normalized to the whole-blood PA-signal amplitude (FIG. 5D). […]
The in-vitro photoacoustic (PA) properties of the N-JAAZ particles were further evaluated. […]

Where “and” joins values, the source holds several entries; their conditions need not be identical. Equal entries are not always repeated.

In general, half-life refers to the time in which the quantity being followed falls by half. Low readings indicate fast loss, high ones slow loss. On to `CC1(C)C(/C=C/C=C/C=C/C=C2\N(CCCCS(=O)(=O)O)c3ccc4ccccc4c3C2(C)C)=[N+](CCCCS(=O)(=O)[O-])c2ccc3ccccc3c21` [ICG, Indocyanine Green], for which the Contrast-to-noise ratio in data set [1] (blood vessels, 90-minutes post-injection, n=2) stood at 1.59. This compound yielded a half-life in data set [1] (female, nu/nu nude, mouse, in vivo) of 1.19 ± 0.45 min. Further, in data set [2], the “peak PA signal wavelength (phantom)” value is 740 nm and 780 nm. In addition, in data set [3], the fluorescence emission result is given as “recordable fluorescence intensity”. Also, the “PA signal relative to whole blood” value in data set [4] is about 0.03 x.

The values are drawn from patent publication US20230118682A1, “MODIFIED J-AGGREGATES AND CONJUGATES THEREOF” (GEORGE MASON UNIVERSITY, priority 2021, published 2023).
